These results are taken from ChEMBL document CHEMBL1152132 (2008).

Activity calls are given as the source filed them. No cut-off for these calls is given here.

The nature of assay [1]: Ratio of compound ED50 to paclitaxel ED50 for tubulin assembly.
In assay [2] the test system is MCF7. In words: Cytotoxicity against human MCF7 cells. The assay is classed as functional. The note with it: read-out: ED50 (the source's name).
Assay [3] deals with NCI/ADR-RES. In words: Cytotoxicity against human NCI/ADR-RES cells. The assay is classed as functional. The note with it: read-out: ED50 (the source's name).
For the next assay, the system named is Endothelial cell. In words: Binding affinity to Pgp in bovine brain microvessel endothelial cells assessed as increase in rhodamine uptake at 10 uM relative to control. The assay is classed as cell-based. To be noted: Bos taurus.
Assay [4] concerns NCI/ADR-RES. Briefly: Ratio of compound ED50 to paclitaxel ED50 for human NCI/ADR-RES cells. The class given is functional.
The subject of assay [5] is MCF7. Briefly: Ratio of compound ED50 to paclitaxel ED50 for human MCF7 cells. The class given is functional.

As to `CC(=O)O[C@H]1C(=O)[C@]2(C)[C@@H](OC(=O)CCCC(=O)O)C[C@H]3OC[C@@]3(OC(C)=O)[C@H]2[C@H](OC(=O)c2ccccc2)[C@]2(O)C[C@H](OC(=O)[C@H](O)[C@@H](NC(=O)c3ccccc3)c3ccccc3)C(C)=C1C2(C)C`, the Ratio ED50 in assay [1] is 1.
With `CC(=O)O[C@H]1C(=O)[C@@]2(C)[C@H]([C@H](OC(=O)c3ccccc3)[C@]3(O)C[C@H](OC(=O)[C@H](O)[C@@H](NC(=O)c4ccccc4)c4ccccc4)C(C)=C1C3(C)C)[C@]1(OC(C)=O)CO[C@@H]1C[C@@H]2O` [PACLITAXEL], the EC50 in the assay on MCF7 [2] was found to be 3.2 nM; in the assay with NCI/ADR-RES [3], 1500 nM.
In the case of `CC(=O)O[C@@]12CO[C@@H]1C[C@H](O)[C@@]1(C)C(=O)[C@H](OC(=O)CCCC(=O)N(C)C)C3=C(C)[C@@H](OC(=O)[C@H](O)[C@@H](NC(=O)c4ccccc4)c4ccccc4)C[C@@](O)([C@@H](OC(=O)c4ccccc4)[C@H]21)C3(C)C`, in the assay on Endothelial cell, the result was Active. Further, the Ratio ED50 in assay [1] is 2.2.
Take `CC(=O)O[C@@]12CO[C@@H]1C[C@H](O)[C@@]1(C)C(=O)[C@H](OC(=O)CCC(=O)O)C3=C(C)[C@@H](OC(=O)[C@H](O)[C@@H](NC(=O)c4ccccc4)c4ccccc4)C[C@@](O)([C@@H](OC(=O)c4ccccc4)[C@H]21)C3(C)C`: the Ratio ED50 in assay [1] stood at 1.7.
In the case of `CC(=O)O[C@@]12CO[C@@H]1C[C@H](O)[C@@]1(C)C(=O)[C@H](OC(=O)CCC(=O)N(C)C)C3=C(C)[C@@H](OC(=O)[C@H](O)[C@@H](NC(=O)c4ccccc4)c4ccccc4)C[C@@](O)([C@@H](OC(=O)c4ccccc4)[C@H]21)C3(C)C`, the outcome in the assay on Endothelial cell was Active. For the same compound, the values for the Ratio ED50 (in assay [1]; in the assay on NCI/ADR-RES [4]; with MCF7 [5]) were 1.6, 2.7 and 2.1, respectively.
On the same counts, the results for `CNC(=O)CCC(=O)O[C@H]1C(=O)[C@@]2(C)[C@H]([C@H](OC(=O)c3ccccc3)[C@]3(O)C[C@H](OC(=O)[C@H](O)[C@@H](NC(=O)c4ccccc4)c4ccccc4)C(C)=C1C3(C)C)[C@]1(OC(C)=O)CO[C@@H]1C[C@@H]2O` are “Active”, 0.8, 6 and 7.9.
As for `CC(=O)O[C@@]12CO[C@@H]1C[C@H](O)[C@@]1(C)C(=O)[C@H](OC(=O)CCCC(N)=O)C3=C(C)[C@@H](OC(=O)[C@H](O)[C@@H](NC(=O)c4ccccc4)c4ccccc4)C[C@@](O)([C@@H](OC(=O)c4ccccc4)[C@H]21)C3(C)C`, in the assay with Endothelial cell, the result was Active. Besides, the Ratio ED50 in assay [1] worked out at 1.8.
As to `CNC(=O)CCCC(=O)O[C@H]1C[C@H]2OC[C@@]2(OC(C)=O)[C@H]2[C@H](OC(=O)c3ccccc3)[C@]3(O)C[C@H](OC(=O)[C@H](O)[C@@H](NC(=O)c4ccccc4)c4ccccc4)C(C)=C([C@@H](OC(C)=O)C(=O)[C@]12C)C3(C)C`, the outcome in the assay on Endothelial cell was Active. Further, the results for the Ratio ED50 (in assay [1]; in the assay on NCI/ADR-RES [4]; in the assay with MCF7 [5]) were 0.8, 3.2 and 3.7, respectively.
Take `CNC(=O)CCCC(=O)O[C@H]1C(=O)[C@@]2(C)[C@H]([C@H](OC(=O)c3ccccc3)[C@]3(O)C[C@H](OC(=O)[C@H](O)[C@@H](NC(=O)c4ccccc4)c4ccccc4)C(C)=C1C3(C)C)[C@]1(OC(C)=O)CO[C@@H]1C[C@@H]2O`: the result with Endothelial cell was Active. For the same compound, the Ratio ED50 in assay [1] is 1.8.
In the case of `CC(=O)O[C@H]1C(=O)[C@]2(C)[C@@H](OC(=O)CCC(=O)O)C[C@H]3OC[C@@]3(OC(C)=O)[C@H]2[C@H](OC(=O)c2ccccc2)[C@]2(O)C[C@H](OC(=O)[C@H](O)[C@@H](NC(=O)c3ccccc3)c3ccccc3)C(C)=C1C2(C)C`, the Ratio ED50 in assay [1] amounted to 3.8.
Regarding `CC(=O)O[C@H]1C(=O)[C@]2(C)[C@@H](OC(=O)CCC(N)=O)C[C@H]3OC[C@@]3(OC(C)=O)[C@H]2[C@H](OC(=O)c2ccccc2)[C@]2(O)C[C@H](OC(=O)[C@H](O)[C@@H](NC(=O)c3ccccc3)c3ccccc3)C(C)=C1C2(C)C`, in the assay with Endothelial cell, the result was Active. For the same compound, the Ratio ED50 in assay [1] was 0.6.
With `COC(=O)CCC(=O)O[C@H]1C(=O)[C@@]2(C)[C@H]([C@H](OC(=O)c3ccccc3)[C@]3(O)C[C@H](OC(=O)[C@H](O)[C@@H](NC(=O)c4ccccc4)c4ccccc4)C(C)=C1C3(C)C)[C@]1(OC(C)=O)CO[C@@H]1C[C@@H]2O`, the Ratio ED50 in assay [1] came to 1; in the assay with NCI/ADR-RES [4], 0.4; in the assay with MCF7 [5], 2.5.
With `CNC(=O)CCC(=O)O[C@H]1C[C@H]2OC[C@@]2(OC(C)=O)[C@H]2[C@H](OC(=O)c3ccccc3)[C@]3(O)C[C@H](OC(=O)[C@H](O)[C@@H](NC(=O)c4ccccc4)c4ccccc4)C(C)=C([C@@H](OC(C)=O)C(=O)[C@]12C)C3(C)C`, in the assay with Endothelial cell, the result was Active. For the same compound, the Ratio ED50 in assay [1] was 0.8.
As to `CC(=O)O[C@H]1C(=O)[C@]2(C)[C@@H](OC(=O)CCCC(N)=O)C[C@H]3OC[C@@]3(OC(C)=O)[C@H]2[C@H](OC(=O)c2ccccc2)[C@]2(O)C[C@H](OC(=O)[C@H](O)[C@@H](NC(=O)c3ccccc3)c3ccccc3)C(C)=C1C2(C)C`, in the assay on Endothelial cell, the outcome was Active. In addition, the Ratio ED50 in assay [1] was determined as 0.6.
The matching figures for `CC(=O)O[C@H]1C(=O)[C@]2(C)[C@@H](OC(=O)CCC(=O)N(C)C)C[C@H]3OC[C@@]3(OC(C)=O)[C@H]2[C@H](OC(=O)c2ccccc2)[C@]2(O)C[C@H](OC(=O)[C@H](O)[C@@H](NC(=O)c3ccccc3)c3ccccc3)C(C)=C1C2(C)C`: “Active” and 1.1.
The matching figures for `COC(=O)CCC(=O)O[C@H]1C[C@H]2OC[C@@]2(OC(C)=O)[C@H]2[C@H](OC(=O)c3ccccc3)[C@]3(O)C[C@H](OC(=O)[C@H](O)[C@@H](NC(=O)c4ccccc4)c4ccccc4)C(C)=C([C@@H](OC(C)=O)C(=O)[C@]12C)C3(C)C`: “Active” and 1.2.
For `CC(=O)O[C@@]12CO[C@@H]1C[C@H](O)[C@@]1(C)C(=O)[C@H](OC(=O)CCCC(=O)O)C3=C(C)[C@@H](OC(=O)[C@H](O)[C@@H](NC(=O)c4ccccc4)c4ccccc4)C[C@@](O)([C@@H](OC(=O)c4ccccc4)[C@H]21)C3(C)C`, the Ratio ED50 in assay [1] came out at 1.8.
For `CC(=O)O[C@@]12CO[C@@H]1C[C@H](O)[C@@]1(C)C(=O)[C@H](OC(=O)CCC(N)=O)C3=C(C)[C@@H](OC(=O)[C@H](O)[C@@H](NC(=O)c4ccccc4)c4ccccc4)C[C@@](O)([C@@H](OC(=O)c4ccccc4)[C@H]21)C3(C)C`, the result in the assay with Endothelial cell was Active. Moreover, the Ratio ED50 in assay [1] amounted to 0.4; in the assay with NCI/ADR-RES [4] it was 6; in the assay with MCF7 [5] it was 10.
Take `CC(=O)O[C@H]1C(=O)[C@]2(C)[C@@H](OC(=O)CCCC(=O)N(C)C)C[C@H]3OC[C@@]3(OC(C)=O)[C@H]2[C@H](OC(=O)c2ccccc2)[C@]2(O)C[C@H](OC(=O)[C@H](O)[C@@H](NC(=O)c3ccccc3)c3ccccc3)C(C)=C1C2(C)C`: in the assay on Endothelial cell, the result was Active. The Ratio ED50 in assay [1] amounted to 0.7.
